Data on one compound can be found in paper PMC4076079, “Selective inhibitors of a PAF biosynthetic enzyme lysophosphatidylcholine acyltransferase 2” (Journal of Lipid Research, 2014).

Each structure is given as a SMILES string.

Test [1] relates to mouse peritoneal macrophages. Description: PAF and lyso-PAF production in LPS-primed, A23187-stimulated peritoneal macrophages. The conditions noted are these: 5 μM A23187 5 min. In kind it is cell-based. The method, then: RAW-mLPCAT2 cells and peritoneal macrophages were seeded in 24-well plates (4 × 10^6 cells/well) for 24 or 2 h, respectively, before treatment. RAW-mLPCAT2 cells were stimulated with 5 μM A23187 for 5 min after a 1 h treatment with the compounds. Peritoneal macrophages were preincubated with 100 ng/ml LPS for 18 h, treated with the compounds for 1 h, and stimulated with 5 μM A23187 for 5 min. To analyze cellular PAF levels, lipids were extracted with 500 μl methanol containing d4-PAF and d4-lyso-PAF as internal standards. Each sample was submitted to solid phase extraction using an Oasis HLB 96-well cartridge cluster (Waters), and PAF and lyso-PAF were measured by LC-MS/MS as previously described ([13]).
Chromatography was performed using an Acquity™ Ultra-performance LC system (Waters) coupled to a TSQ Vantage triple stage quadrupole mass spectrometer (Thermo Scientific) with a HESI-II electrospray ionization source ([13]). Phospholipids were separated on BEH C8 columns (1.7 μm, 2.1 × 30 mm or 1 × 100 mm; Waters) for the analysis of assay products or the composition of cellular PAF and lyso-PAF, respectively. The mobile phase contained 20 mM aqueous ammonium bicarbonate and acetonitrile. The extracts from peritoneal macrophages were separated on a Kinetex C8 column (1.7 μm, 2.1 × 100 mm; Phenomenex, Torrance, CA) by a gradient elution with 0.05% formic acid-water and acetonitrile, using the Nexera X2 system and LCMS-8080 mass spectrometer (Shimadzu, Kyoto, Japan) ([13]). Lyso-PAF, d4-PAF, and d31-DPPC were identified by the choline fragment (m/z 184) as a product ion of selected reaction monitoring in the positive ion mode. Nonlabeled PAF and d4-16:0/20:4 alkyl-PC were determined by fatty acid anions of sn-2 composition (m/z 59 and 303, respectively) in the negative ion mode. […] Signal intensities were determined relative to the internal standard or as the percentage of the positive control.
The effect of TSI-01 on PAF and lyso-PAF biosynthesis was evaluated using thioglycollate-elicited mouse peritoneal macrophages. […]

The test system of the next test is PLA2. Kind of test: PLA2 assay. It is filed as biochemical, mouse. The conditions noted are these: 20 μM compound, soluble protein fraction of peritoneal macrophages; data not shown. The method, then:
PAF-AH and PLA2 activities were determined as previously described ([3]). Briefly, a soluble protein fraction of peritoneal macrophages was incubated with 20 μM of each compound at 37°C for 30 min in a total volume of 0.1 ml. For the PAF-AH assay, the reaction mixture contained 2.5 μg protein, 50 mM Tris-HCl (pH 7.4), 5 mM EDTA, 5 mM 2-mercaptoethanol, and 1 μM d4-PAF. For the PLA2 assay, 10 μg protein was incubated in buffer containing 100 mM Tris-HCl (pH 7.4), 1 mg/ml BSA, 4 mM CaCl2, 1 mM DTT, and 2 μM 16:0/20:4 alkyl-PC. A cytosolic PLA2 inhibitor, pyrrophenone (Sigma-Aldrich), was used as a positive control. The reactions were stopped with 0.27 ml of chloroform/methanol (1:2, v/v), followed by the sequential addition of an internal standard (17:0 LPC or d4-lyso-PAF), 0.11 ml chloroform, and 0.1 ml water. Lipids were extracted using the Bligh and Dyer method ([26]). The PAF-AH and PLA2 activities were measured by detecting d4-lyso-PAF and nonlabeled lyso-PAF, respectively, using LC-MS/MS.

For the compound `CC(C)OC(=O)c1ccc(N2C(=O)C(Cl)=C(Cl)C2=O)cc1` [TSI-01, propan-2-yl 4-(3,4-dichloro-2,5-dioxopyrrol-1-yl)benzoate], the PAF levels result in test [1] (60 μM TSI-01, LPS 18 h, compound 1 h) is recorded as “below the detection limit”. Also, in test [1] (LPS 100 ng/ml 18 h, TSI-01 1 h), the “PAF levels in A23187-stimulated cells” value is recorded as “decreased” and the lyso-PAF levels entry was “not changed”. Further, in the test on PLA2, the PLA2 activity result is recorded as “not PLA2 activity”.
